Test results published in patent US20230295162A1 (EÖTVÖS LORÁND TUDOMÁNYEGYETEM, priority 2020, published 2023).

How the values were obtained:
[1] = tested on: U-87 (human primary glioblastoma) cells; experiment: Short term cytotoxicity, MTT assay; assay type: cell-based; details: 1 h treatment then 72 h culture, read-out: cytotoxicity expressed in IC50, U-87
Experimental: (§1) For the short term cytotoxicity studies the A-431 (human squamous carcinoma) and U-87 (human primary glioblastoma) cells were cultured in RPMI-1640 medium supplemented with 10% FCS (fetal calf serum, Sigma Ltd.), 2 mM L-glutamine, and […] gentamicin. Cell cultures were maintained at 37° C. in a humidified atmosphere with 5% CO2. The cells were grown to confluency and were distributed into 96-well plate with initial cell number of 5.0×10^3 per well. After 24 h incubation at 37° C., the cells were treated with the compounds in 200 μL final volume containing 1.0 v/v % DMSO. The cells were incubated with the compounds at 10^−4-10^2 μM concentration range for 1 h. Control cells were treated with serum free medium (RPMI-1640) only or with DMSO (c=1.0 v/v %) at 37° C. for 1 h. After incubation the cells were washed twice with serum free (RPMI-1640) medium. To determine the in vitro cytostatic effect, the cells were cultured for a further 72 h in 10% serum containing medium. MTT-solution ([…], 2 mg/mL, final concentration: 0.37 mg/mL) was added to each well. The respiratory chain [26, 27] and other electron transport systems reduce MTT and thereby form non-water-soluble violet formazane crystals within the cell. […] After 4 h of incubation the cells were centrifuged for 5 min (900 g) and the supernatant was removed. The obtained formazane crystals were dissolved in DMSO ([…]) and optical density (OD) of the samples was measured at λ=540 and 620 nm, respectively, using ELISA Reader (iEMS Reader, Labsystems, Finland). OD620 values were subtracted from OD540 values. The percent of cytostasis was calculated by using the following equation: Cytostatic effect (%)=[1−(ODtreated/ODcontrol)]×100 Values ODtreated and ODcontrol correspond to the optical densities of the treated and the control cells, respectively. In each case two independent experiments were carried out with 4 parallel measurements. […] The curves were defined using Microcal™ Origin1 (version 7.5) software: cytostasis was plotted as a function of concentration, fitted to a sigmoidal curve, and based on this curve, the half maximal inhibitory concentration (IC50) value was determined.

[2] = tested on: A-431 (human squamous carcinoma) cells; experiment: Short term cytotoxicity, MTT assay; assay type: cell-based; details: 1 h treatment then 72 h culture, read-out: cytotoxicity expressed in IC50, A-431
Experimental: as §1

[3] = tested on: EBC-1 lung cancer cell line; experiment: High-throughput screening, CellTiter-Glo cell viability assay at 100 nM; assay type: cell-based, human; details: Homo sapiens, EBC-1, HTS, compounds at 100 nM, 72 h, read-out: cytotoxicity expressed in IC50, EBC-1 (results of High throughput screening)
[4] = tested on: H2228 lung cancer cell line; experiment: as above; assay type: cell-based, human; details: Homo sapiens, NCI-H2228, HTS, compounds at 100 nM, 72 h, read-out: cytotoxicity expressed in IC50, H2228 (results of High throughput screening)
[5] = tested on: COLO-205 (human colorectal adenocarcinoma) cells; experiment: Colorimetric alamarBlue assay, long treatment; details: COLO 205, 72 h, read-out: cytotoxicity expressed in IC50, COLO-205
[6] = tested on: A2058 (human metastatic melanoma) cells; experiment: Colorimetric alamarBlue assay, long treatment; details: Homo sapiens, A2058, 72 h, read-out: cytotoxicity expressed in IC50, A-2058
[7] = tested on: PANC-1 (human pancreatic carcinoma) cells; experiment: Impedance-based viability assay (xCELLigence SP), long treatment; assay type: cell-based; details: 72 h, read-out: cytotoxicity expressed in IC50, PANC-1
Text: (Gibco®/Invitrogen Corporation, New York, NY, USA).
Data obtained from each experiment represent mathematical averages.

[8] = tested on: representative cell lines; experiment: Cytotoxicity on representative cell lines (summary statement); assay type: cell-based; details: Homo sapiens; summary range, ca.
[9] = tested on: MDA-MB-231 breast cancer cell line; experiment: CellTiter-Glo IC50 (Table 3); assay type: cell-based; details: Homo sapiens
Experimental: (§2) Some representative imipridones and ONC212 as reference were further tested on the following human malignant cell lines: PC3 and LNCap (prostate carcinoma); BxPC3, MiaPaCa2 and Panc1 (pancreatic cancer); A549, HCC827, H1993 and H520 (lung carcinoma); MDA-MB-453 and MDA-MB-231 (breast cancer) (see Table 2 and FIGS. 1-11).
(§3) Cell lines were maintained according to the instructions provided by ATCC (https://www.lgcstandards-atcc.org/) in a 5% CO2 humidified incubator maintained at 37° C. temperature. Effects of compounds on cell viability were measured via CellTiter-Glo® luminescent cell viability assay (Promega, Madison, WI, USA) Cells were plated at 1000 cells/well onto a flat-bottomed, white 96 well plate (BRANDplates, cat. no.: 781965). […] After the treatment, medium was removed and CellTiter-Glo® reagent was added. The luminescence signal was recorded using a microplate reader (BioTek Synergy 2 Multi-Mode Reader, BioTek, Winooski, VT, USA).
(§4) Cell viability data (% of untreated control cells) was evaluated with Microsoft Excel. Dose-response curves (using a non-linear regression model, log (inhibitor) vs response, variable slope) were generated and IC50 values were determined using Graph Pad Prism 5.02 software (GraphPad Software, San Diego, CA, USA).

[10] = tested on: MDA-MB-453 breast cancer cell line; experiment: CellTiter-Glo IC50 (Table 3); assay type: cell-based; details: Homo sapiens
Experimental: as §2, §3, §4

[11] = tested on: Panc1 pancreatic cancer cell line; experiment: CellTiter-Glo IC50 (Example 19); assay type: cell-based; details: Homo sapiens, PANC-1, 72 h
Experimental: as §2, §3, §4

[12] = tested on: A549 lung carcinoma cell line; experiment: CellTiter-Glo IC50 (Example 19); assay type: cell-based; details: Homo sapiens, 72 h
Experimental: as §2, §3, §4

[13] = tested on: LNCap human prostate cancer cell line; experiment: CellTiter-Glo IC50 (Example 19); assay type: cell-based; details: 72 h
Experimental: as §2, §3, §4

[14] = tested on: H520 lung carcinoma cell line; experiment: CellTiter-Glo IC50 (Example 19); assay type: cell-based; details: Homo sapiens, NCI-H520, 72 h
Experimental: as §2, §3, §4

[15] = tested on: MiaPaCa2 pancreatic cancer cell line; experiment: CellTiter-Glo IC50 (Example 19); assay type: cell-based; details: Homo sapiens, MIA PaCa-2, 72 h
Experimental: as §2, §3, §4

[16] = tested on: HCC827 lung carcinoma cell line; experiment: CellTiter-Glo IC50 (Example 19); assay type: cell-based; details: Homo sapiens, 72 h
Experimental: as §2, §3, §4

[17] = tested on: PC3 human prostate cancer cell line; experiment: CellTiter-Glo IC50 (Example 19); assay type: cell-based; details: 72 h
Experimental: as §2, §3, §4

[18] = tested on: H1993 lung carcinoma cell line; experiment: CellTiter-Glo IC50 (Example 19); assay type: cell-based; details: Homo sapiens, NCI-H1993, 72 h
Experimental: as §2, §3, §4

[19] = tested on: BxPC3 pancreatic cancer cell line; experiment: CellTiter-Glo IC50 (Example 19); assay type: cell-based; details: Homo sapiens, BXPC-3, 72 h
Experimental: as §2, §3, §4

Detroit 562 cell line = experiment: Additional in vitro IC50 tests (Table 3); assay type: cell-based; details: Homo sapiens
Experimental: as §3, §4

H2228 cell line = experiment: Additional in vitro IC50 tests (Table 3); assay type: cell-based; details: Homo sapiens, NCI-H2228
Experimental: as §3, §4

Fadu cell line = experiment: Additional in vitro IC50 tests (Table 3); assay type: cell-based; details: Homo sapiens
Experimental: as §3, §4

EBC-1 cell line = experiment: Additional in vitro IC50 tests (Table 3); assay type: cell-based; details: Homo sapiens
Experimental: as §3, §4

SCC-25 cell line = experiment: Additional in vitro IC50 tests (Table 3); assay type: cell-based; details: Homo sapiens
Experimental: as §3, §4

SMILES	IC50 [1]	IC50 [2]	IC50 [3]	IC50 [4]	IC50 [5]	IC50 [6]	IC50 [7]	further results
O=C1C2=C(CCN(Cc3ccccc3)C2)N2CCN=C2N1Cc1ccc(F)cc1 [I/5]	> 25000 nM	3550 nM	> 100 nM	> 100 nM	247 nM	250 nM	250 nM	–
O=C1C2=C(CCN(Cc3ccccc3)C2)N2CCN=C2N1Cc1cccc(F)c1 [I/8]	> 25000 nM	7290 nM	> 100 nM	> 100 nM	4960 nM	1730 nM	1420 nM	–
O=C1C2=C(CCN(Cc3ccccc3)C2)N2CCN=C2N1Cc1cc(F)c(F)c(F)c1 [I/9]	6020 nM	1390 nM	–	–	> 10000 nM	> 10000 nM	2220 nM	–
O=C1C2=C(CCN(Cc3ccccc3F)C2)N2CCN=C2N1Cc1ccc(C(F)(F)F)c(F)c1 [I/26]	3510 nM	3630 nM	> 100 nM	> 100 nM	> 10000 nM	> 10000 nM	920 nM	–
O=C1C2=C(CCN(Cc3ccc(C(F)(F)F)cc3)C2)N2CCN=C2N1Cc1ccc(C(F)(F)F)c(F)c1 [I/27]	5990 nM	8950 nM	> 100 nM	> 100 nM	25000 nM	12800 nM	25000 nM	–
O=C1C2=C(CCN(Cc3ccc(F)cc3)C2)N2CCN=C2N1Cc1ccc(C(F)(F)F)c(F)c1 [I/28]	17600 nM	2660 nM	> 100 nM	> 100 nM	3270 nM	> 10000 nM	960 nM	–
O=C1C2=C(CCN(Cc3cccc(F)c3)C2)N2CCN=C2N1Cc1ccc(C(F)(F)F)c(F)c1 [I/31]	> 25000 nM	< 200 nM	< 100 nM	< 100 nM	–	–	76.7 nM	–
O=C1C2=C(CCN(Cc3cc(F)cc(F)c3)C2)N2CCN=C2N1Cc1ccc(Br)cc1 [I/39, 4-(4-Bromobenzyl)-7-(3,5-difluorobenzyl)-2,4,6,7,8,9-hexahydroimidazo[1,2-a]pyrido[3,4-e]pyrimidin-5(1H)-one]	–	–	< 100 nM	< 100 nM	–	–	3 nM	IC50 [8]: 3 to 8 nM; IC50 [9]: < 1 nM; IC50 [10]: < 1 nM; IC50 [11]: 4 nM; IC50 [12]: 4 nM; IC50 [13]: 2 nM; IC50 [14]: 3 nM; IC50 [15]: 4 nM; IC50 [16]: 4 nM; IC50 [17]: 2 nM; IC50 [18]: 3 nM; IC50 [19]: 3 nM; melting point: 173.5 °C; IC50 (Detroit 562 cell line): 3 nM; IC50 (H2228 cell line): 6 nM; IC50 (Fadu cell line): 5 nM; IC50 (EBC-1 cell line): 4 nM; IC50 (SCC-25 cell line): 7 nM
O=C1C2=C(CCN(Cc3cccc(F)c3)C2)N2CCN=C2N1Cc1ccc(I)cc1 [I/46]	25000 nM	6160 nM	< 100 nM	~100 nM	–	> 10000 nM	25 nM	–
NCc1cccc(CN2C(=O)C3=C(CCN(Cc4cccc(F)c4)C3)N3CCN=C23)c1 [I/60]	416 nM	< 200 nM	> 100 nM	> 100 nM	> 10000 nM	> 10000 nM	430 nM	–
